Here are results for two compounds from article PMC10761396, “Evaluation of new alternative methods for the identification of estrogenic, androgenic and steroidogenic effects: a comparative in vitro/in silico study” (Archives of Toxicology, 2023).

Assay [1] addresses T1, human recombinant CYP19A1 (Homo sapiens, UniProt P11511).
T1 sequence (P11511 1-503): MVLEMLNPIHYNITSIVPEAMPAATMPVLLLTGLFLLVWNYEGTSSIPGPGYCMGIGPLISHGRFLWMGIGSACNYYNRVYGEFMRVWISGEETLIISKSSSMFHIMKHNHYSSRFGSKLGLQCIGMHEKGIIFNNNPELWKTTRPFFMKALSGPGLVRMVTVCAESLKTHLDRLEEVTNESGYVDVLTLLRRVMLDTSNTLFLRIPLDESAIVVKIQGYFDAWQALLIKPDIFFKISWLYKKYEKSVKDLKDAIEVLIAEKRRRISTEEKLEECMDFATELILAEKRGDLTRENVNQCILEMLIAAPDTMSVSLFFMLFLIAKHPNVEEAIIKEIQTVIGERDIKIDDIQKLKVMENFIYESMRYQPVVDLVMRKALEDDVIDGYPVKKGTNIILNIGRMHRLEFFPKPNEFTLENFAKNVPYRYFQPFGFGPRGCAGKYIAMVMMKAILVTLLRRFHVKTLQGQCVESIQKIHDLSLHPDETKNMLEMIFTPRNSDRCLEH
Put plainly: Recombinant enzyme aromatase activity inhibition assay. The note with it: follow-up dose–response assay. The assay is classed as biochemical. How it is done:
An aromatase inhibition assay was also included in the in vitro assay panel. This enzyme – otherwise known as CYP19A1 - is responsible for converting androgens into estrogens (Blakemore and Naftolin 2016; Bulun 2014); therefore, chemicals that inhibit aromatase activity can lead to reduced estrogen production, which can affect reproductive and developmental processes (Kragie 2002; Tiboni and Ponzano 2016).
The metabolite, estradiol, was measured by time-resolved fluorescence according to the method described previously (Ji et al. 2014). Enzyme inhibition was calculated as a % inhibition of control enzyme activity.

In a further assay the test system is human (non-selective) ER. Put plainly: ER radioligand ([3H]estradiol) receptor-binding assay. The settings on record: for inhibition of control specific binding to the ER: single-dose screening, 10 µM.

Each structure is given as a SMILES string.

The IC50 is the midpoint of a concentration-inhibition curve. Higher therefore signals a need for much substance. A word on the Ki: it is the equilibrium dissociation constant of an inhibitor or competing ligand from its target. A lower Ki goes with higher affinity.

Method for human (non-selective) ER: The chemicals were tested for their ability to bind to different targets. […] Chemicals were incubated at 10 µM with cells overexpressing ER or AR for 24 h at 4°C, after which, the binding of the radiolabeled ligand ([^3H]estradiol for ER and [^3H]methyltrienolone for AR) was measured by liquid scintillation counting. An increase or decrease higher than 50% were considered to represent significant effects. Four chemicals were tested in additional incubations at several concentrations up to the maximum soluble concentration for IC50 or EC50 determination for the associated target. Receptor binding was calculated as a % inhibition of the binding of a radioactively labeled ligand specific for each target.
Each test chemical was tested in a single assay in duplicate.

With `O=c1c(-c2ccc(O)cc2)coc2cc(O)ccc12` [Daidzein, daidzein], in assay [1], the aromatase inhibition outcome was “lack of binding”. Further, in the assay with human (non-selective) ER, the “inhibition of control specific binding to the ER” value is given as “more than 50%”.
`C[C@]12CCC(=O)C[C@@H]1CC[C@@H]1[C@@H]2CC[C@@]2(C)[C@H]1CC[C@]2(C)O` [Mestanolone, mestanolone, reference compound]: the aromatase inhibition outcome in assay [1] was “lack of binding”. In the assay on human (non-selective) ER, the ER binding outcome is given as “confirmed to bind to the ER” and the “inhibition of control specific binding to the ER” value is listed as “more than 50%”. On human (non-selective) ER (follow-up dose–response assay), this compound returned an IC50 of 1.6 µM and a Ki of 0.52 µM.
